Entries after “also recorded” stand apart in the source; their conditions may differ. {C6-FAM} = fluorescein (C6-FAM) label; [invdT] = inverted (3'-3') thymidine; d = 2'-deoxy (DNA); m = 2'-O-methyl; r = 2'-OH (RNA); f = 2'-fluoro
Legend:
ECD PSMA = target: T1, ECD PSMA (Homo sapiens, UniProt Q04609); experiment: Dot blot binding assay (nitrocellulose filtration)
T1 construct: N-terminal linker […]; made in house; host or cells: 293 Freestyle cells, pSecTag2B vector
Experimental: The binding reactions are then analyzed by nitrocellulose filtration using a Minifold I dot-blot, 96-well vacuum filtration manifold (Schleicher & Schuell, Keene, N.H.) (dot blot binding assay). A three-layer filtration medium is used, consisting (from top to bottom) of Protran nitrocellolose (Schleicher & Schuell), Hybond-P nylon (Amersham Biosciences, Piscataway, N.J.) and GB002 gel blot paper (Schleicher & Schuell). The nitrocellulose layer, which selectively binds protein over nucleic acid, preferentially retains the anti-PSMA aptamer in complex with a protein ligand, while non-complexed anti-PSMA aptamer passes through the nitrocellulose and adhered to the nylon (the gel blot paper is included as a supporting medium for the other filters). Following filtration, the filter layers are separated, dried and exposed on a phosphor screen (Amersham Biosciences) and quantified using a Storm 860 Phosphorimager® blot imaging system (Amersham Biosciences) and KD values are calculated by fitting the equation y=(max/(1+K/protein))+yint.
Dot Blot Binding Analysis. […]
In order to identify the core structural elements required for ARC955 binding to PSMA, the 3′-boundaries of the clone was determined through alkaline hydrolysis. […] The KD and maximum % bound for the 3 minimized constructs with the overall highest PSMA affinity, as determined by a dot blot binding assay, are listed in Table 4. […]

LNCaP cells = experiment: Cell proliferation assay, chemiluminescent detection of BrdU; type: cell-based; conditions: for effect on cell viability / cell killing (in words): LNCaP cells
Experimental: Effects on LNCaP cell viability were assessed in a cell proliferation assay based on chemiluminescent detection of BrdU described below (Cell Proliferation ELISA, BrdU (Roche, Indianapolis, Ind.). PC-3 cells were used as a control cell line.
Media from LNCaP (PSMA+) or PC3 (PSMA−) cells growing in 15 cm plates was aspirated off then cells were washed with 10 mL 1×PBS. Cells were trypsinized for 30 sec at 37° C. Following trypsinization, 8 mL 10% FBS media was used to quench trypsin. […] Following spin the media was aspirated off and the cell pellet was re-suspended with 10 mL complete media. The cell density was adjusted to 200,000 cells/mL. 50 μl of cells/well was added to collagen coated black 96-well plates (10,000 cells/well). […] Following overnight incubation 25 μl of media, aptamer or antibody was added to each well with the final volume in the well being 100 μl and incubated at 37° C. in 5% CO2 for designated time length. […] After 2 days 20 μl BrdU labeling reagent (100×) is mixed with 2 mL of complete media. […] After incubation, the media was removed, and the assay was completed following the manufacturer's protocol: 200 μl/well FixDenat solution was added to each well and incubated for 30 min at RT. Following removal of FixDenat solution 100 μl anti-BrdU POD Fab fragment solution (Luminol/4-iodophenol) was added to each well and incubated for 90 min at RT. After incubation anti-BrdU POD solution was removed and plates were washed with 200 μl/well of washing solution three times with 5 min RT incubations. 100 μl of substrate solution was added to each well and cells were incubated for 3 min at RT in the dark. The plates were read using a luminescence program with a 1 sec count on a Packard TopCount Microplate Scintillation and Luminescence Counter.

LNCaP cells (PSMA+) = experiment: LNCaP FACS assay with fluorescein-labeled aptamers; type: cell-based; conditions: FACS analysis
Source text: The parent A9 aptamer sequence (SEQ ID NO 168) is predicted by the MFOLD algorithm implemented in the RNAStructure program v. 4.11 to fold into a partially mismatched hairpin that encompasses almost the entire molecule. A series of truncated constructs were designed, in which self-pairing nucleotides from the 5′- and 3′-ends were simultaneously removed, chemically synthesized using conventional solid-phase phosphoramidite-based synthesis, and tested. In the design of some of the truncated A9 aptamers, see e.g. ARC591, additional bases were added to the 3′ and 5′ ends of the truncate, where the bases added to the 5′ end were capable of forming Watson-Crick base pairs with those added to the 3′ end thereby increasing the length of stem structure. Truncated aptamers were 5′-labeled with fluorescein and tested for binding in to LNCaP cells (PSMA+) in the FACS assay described below. PC-3 cells (PSMA−) were used as a control cell line. The sequences of the truncated A9 aptamers designed are listed below in Table 6 below.
To accomplish 5′-fluorescein labeling, aptamers were synthesized with a 5′-amine and then modified post-solid phase synthesis. The required aptamer was dissolved to a concentration of ˜10-50 mg/mL in 25 mM phosphate buffer, pH 7.4. The small molecule, NHS ester of fluorescein, was dissolved to a concentration of 10 mg/mL in DMSO. 1.5 Molar equivalents were added to the aptamer and the solution vortexed for ˜15 seconds. The reaction was allowed to proceed in the dark at room temperature for 1 hour and then a 5 μL aliquot was withdrawn, diluted with water and analyzed by HPLC. Additional equivalents of the small molecule were added until the reaction was complete by HPLC. Excess small molecules were removed by gel filtration.
To prepare aptamers for the FACS assay, PSMA aptamers were serially diluted (0-1 uM) in FACS buffer (1×DPBS w/Ca^++/Mg^++ (Gibco, Carlsbad, Calif.) supplemented with 10 mg/mL salmon sperm DNA & 0.2% Na Azide), in a V-bottom 96 well plate, at the concentrations to be tested. LNCaP and PC-3 cells (ATCC, Manassas, Va.) were harvested with trypsin, and 200,000 cells/well were counted, washed once with 1×DPBS (with Ca^++ and Mg^++) and resuspended in 200 μl of FACS Buffer. The 200 μl of cells in FACS buffer were added to individual wells of a new 96 well plate, pelleted by centrifugation (1300 rpm for 5 minutes), and resuspended in 100 μl of the appropriate concentration of diluted aptamer. FACS buffer, c-PSMA antibody (3C6) (Northwest Biotherapeutics, Bothell, Wash., Cat #: 60-5002) and an irrelevant fluorescein isothiocyanate (“FITC”) mouse IgG1 isotype control antibody (BD Pharmingen, San Diego, Calif., Cat#: 554679) were used as controls. The wells of aptamer/cell mixture were incubated at room temperature for 20-30 minutes. […]

PSMA NAALADase activity = PSMA NAALADase activity (Homo sapiens, UniProt Q04609); experiment: NAALADase inhibition assay; type: biochemical; conditions: relative to parent aptamer
Experimental: These point mutant constructs were assessed for activity in terms of inhibition of PSMA NAALADase activity. The NAALADase assay was performed in 96 well format. PSMA aptamers were serially diluted in 1× reaction buffer (40 mM Tris-HCl, pH 7.4, 0.1 mM ZnSO4, 0.1 mg/mL BSA) in a standard 96 well plate to be tested at a final concentration range from 30 pM to 1 μM. The enzyme was prepared by diluting 30 μL of 100 nM PSMA into 8 mL of reaction buffer, and kept cool on ice. The substrate was prepared by adding 19 μl of NAAG [Glutamate-3,4-^3H], 50.8 Ci/mmol, 19.7 μM (Perkin-Elmer, Wellesley, Mass., NET1082) into 2.2 mL of reaction buffer.
Following preparation of all reagents, 4 μl of each serially diluted aptamer was added to a separate 96 well plate (the reaction plate). 76 μl of diluted enzyme was added to the corresponding wells containing aptamer. 80 μl of reaction buffer was added to one column of wells to serve as a background control. The diluted substrate and reaction plate were then moved to a room at 37° C. and allowed to equilibrate for 10 minutes. […]
To separate the cleavage products, […] and Glutamate, from the substrate, an AG 1-×8, 200-400 mesh, formate resin (BioRad, Hercules, Calif., # 140-1454) was used. […] The plate was sealed and read using a Packard Topcount Microplate Scintillation Counter. […]

T1 sequence (Q04609 with tags, fused parts or gaps): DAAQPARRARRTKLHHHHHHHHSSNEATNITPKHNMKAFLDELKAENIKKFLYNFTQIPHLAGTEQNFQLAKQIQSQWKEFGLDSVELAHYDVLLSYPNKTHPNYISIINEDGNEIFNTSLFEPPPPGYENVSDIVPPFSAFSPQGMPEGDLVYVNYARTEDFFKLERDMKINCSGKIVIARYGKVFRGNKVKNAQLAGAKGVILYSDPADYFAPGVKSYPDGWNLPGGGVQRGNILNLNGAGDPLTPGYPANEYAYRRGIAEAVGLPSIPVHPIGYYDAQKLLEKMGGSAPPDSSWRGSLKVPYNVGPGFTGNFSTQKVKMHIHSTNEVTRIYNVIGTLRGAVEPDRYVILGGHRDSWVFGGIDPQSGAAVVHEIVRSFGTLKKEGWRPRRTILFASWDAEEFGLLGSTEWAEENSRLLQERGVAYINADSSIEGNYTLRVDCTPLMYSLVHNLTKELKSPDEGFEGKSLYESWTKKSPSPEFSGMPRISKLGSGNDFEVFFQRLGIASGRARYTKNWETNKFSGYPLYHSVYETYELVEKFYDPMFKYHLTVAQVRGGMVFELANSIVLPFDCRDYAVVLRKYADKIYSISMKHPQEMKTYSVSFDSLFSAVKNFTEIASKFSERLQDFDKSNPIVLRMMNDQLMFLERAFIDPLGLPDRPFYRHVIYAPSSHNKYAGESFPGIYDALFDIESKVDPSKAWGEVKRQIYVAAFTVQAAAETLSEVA
Chain of PSMA NAALADase activity (Q04609 with tags, fused parts or gaps limits assumed): as the sequence (Q04609 with tags, fused parts or gaps) above

AGAGGAGAGAACGUUCUACUAUGGGUGGCUGGGAGGGG (2'-O-methyl at ACU, RNA at G, backbone not given here) [ARC1091, rGmH minimer of ARC955]
PSMA binding (in words) (ECD PSMA): maintains the full binding capacity

O=c1c(-c2ccc(O)cc2)coc2cc(O)cc(O)c12 [Genistein, reference compound]
cytotoxicity at 25 μM (LNCaP cells; positive control, 25 μM dose): partial inhibition | cytotoxicity at 150 μM (LNCaP cells; positive control, 150 μM): complete cell killing

c6 fam-mCmGmGmAfCfCmGAAAAmAmGmAmCfCfUGAfCfUfUfCfUAfUAfCfUAAmGmUmCmUAfCmGfUmUmCmCmG-3T (CGGACCGAAAAAGACCUGACUUCUAUACUAAGUCUACGUUCCG; sugars from the 5' end mmmmffmrrrrmmmmffrrfffffrfrffrrmmmmrfmfmmmm, [invdT] at 3' end, 5' {C6-FAM}, backbone not given here) [ARC711, fluorescently labeled A9 minimer]
competition with fluorescently labeled anti-PSMA antibody for binding to the surface of LNCaP cells (LNCaP cells (PSMA+)): effectively competes

mCmGmGmAfCfCmGdAdAfCmAmAmGmGmCfCfU-s-dGmAfCfUfUfCfUmAfUmAfCfUdAmAmGmCmCmUmAfCmGfUmUmCmCmG-3T (CGGACCGAACAAGGCCUGACUUCUAUACUAAGCCUACGUUCCG; sugars from the 5' end mmmmffmddfmmmmmffdmfffffmfmffdmmmmmmfmfmmmm, [invdT] at 3' end, backbone not given here; internal -s- element between two units) [ARC1725]
NAALADase inhibition activity (in words) (PSMA NAALADase activity): retained full activity

UAAUACGACUCACUAUAGGGAGAGGAGAGAACGUUCUACUAUGGGUGGCUGGGAGGGGAAGAGGGAGUAGGUCGAUCGAUCGAUCAUCGAUG [ARC955]
effect on cell viability / cell killing (in words) (LNCaP cells): no intrinsic effect on cell viability at any concentration

mCmGmGmACmGAAAAmAmGmAmCfCfUGAfCfUfUfCfUAfUAfCfUAAmGmUmCmUAfCmGfUmUmCmCmG-3T [ARC942]
effect on cell viability / cell killing (in words) (LNCaP cells): no intrinsic effect on cell viability at any concentration

C6 FAM-GGAGGACCGAAAAAGACCUGACUUCUAUACUAAGUCUACGUUCCUCC-3T (GGAGGACCGAAAAAGACCUGACUUCUAUACUAAGUCUACGUUCCUCCT; 5' FAM label and 3' inverted dT, sugar chemistry not clearly assigned, further chemistry not given here) [ARC710, fluorescently labeled A9 minimer]
competition with fluorescently labeled anti-PSMA antibody for binding to the surface of LNCaP cells (LNCaP cells (PSMA+)): effectively competes

CUACUACACAUGGGUCGGGUGAGUGGCAAAGGAAUAGUAG (2'-O-methyl at ACU, RNA at G, backbone not given here) [ARC725]
PSMA binding (in words) (ECD PSMA): no intrinsic PSMA binding; also recorded: not to exhibit PSMA binding

Reference: patent publication US7767803B2, “Stabilized aptamers to PSMA and their use as prostate cancer therapeutics” (Archemix Corp., priority 2002, dated 2010)
